Values joined by “and” are separate entries in the source; they are usually repeats but may differ in a detail not shown here. Equal entries are not always repeated. Active and inactive are the calls of the source.

This note sets out measurements from ChEMBL document CHEMBL1201862, “PubChem BioAssay data set” (2004).

One assay addresses T1, fMet-Leu-Phe receptor (Homo sapiens, UniProt P21462).
T1 sequence (P21462 whole entry): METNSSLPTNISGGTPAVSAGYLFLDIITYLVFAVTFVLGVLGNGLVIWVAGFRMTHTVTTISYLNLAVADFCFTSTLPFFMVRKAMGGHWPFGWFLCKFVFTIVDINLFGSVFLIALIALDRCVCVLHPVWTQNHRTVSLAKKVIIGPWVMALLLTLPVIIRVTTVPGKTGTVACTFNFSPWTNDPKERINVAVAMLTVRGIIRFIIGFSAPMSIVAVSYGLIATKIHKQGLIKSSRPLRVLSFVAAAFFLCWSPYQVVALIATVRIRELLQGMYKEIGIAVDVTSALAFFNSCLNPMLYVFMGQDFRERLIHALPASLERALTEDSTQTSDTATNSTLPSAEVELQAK
The assay is described as follows: formyl peptide receptor binders – dose response (AID 519). The assay is classed as functional.

The target in the next assay is T2, Protein skinhead-1 (Caenorhabditis elegans, UniProt P34707).
T2 sequence (P34707 whole entry): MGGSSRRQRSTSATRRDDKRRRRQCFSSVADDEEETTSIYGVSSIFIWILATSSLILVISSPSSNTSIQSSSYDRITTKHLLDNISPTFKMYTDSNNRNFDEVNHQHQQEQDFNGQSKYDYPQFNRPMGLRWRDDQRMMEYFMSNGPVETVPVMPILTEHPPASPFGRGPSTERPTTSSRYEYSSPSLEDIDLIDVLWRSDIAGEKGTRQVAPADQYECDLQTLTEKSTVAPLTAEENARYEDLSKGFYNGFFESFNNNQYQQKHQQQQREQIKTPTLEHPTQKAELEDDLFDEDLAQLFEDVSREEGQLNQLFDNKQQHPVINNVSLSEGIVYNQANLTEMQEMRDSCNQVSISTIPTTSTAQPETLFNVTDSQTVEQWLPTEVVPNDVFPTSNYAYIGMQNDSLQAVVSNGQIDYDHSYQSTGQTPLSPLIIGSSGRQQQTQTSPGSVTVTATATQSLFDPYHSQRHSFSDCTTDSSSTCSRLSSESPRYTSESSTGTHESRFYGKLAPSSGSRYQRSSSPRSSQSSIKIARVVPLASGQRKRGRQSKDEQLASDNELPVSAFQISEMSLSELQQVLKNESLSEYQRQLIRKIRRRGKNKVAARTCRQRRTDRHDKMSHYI
The assay is classed as functional.

Assay [1] addresses T3, Histone-lysine N-methyltransferase NSD2 (Homo sapiens, UniProt O96028).
T3 sequence (O96028 whole entry): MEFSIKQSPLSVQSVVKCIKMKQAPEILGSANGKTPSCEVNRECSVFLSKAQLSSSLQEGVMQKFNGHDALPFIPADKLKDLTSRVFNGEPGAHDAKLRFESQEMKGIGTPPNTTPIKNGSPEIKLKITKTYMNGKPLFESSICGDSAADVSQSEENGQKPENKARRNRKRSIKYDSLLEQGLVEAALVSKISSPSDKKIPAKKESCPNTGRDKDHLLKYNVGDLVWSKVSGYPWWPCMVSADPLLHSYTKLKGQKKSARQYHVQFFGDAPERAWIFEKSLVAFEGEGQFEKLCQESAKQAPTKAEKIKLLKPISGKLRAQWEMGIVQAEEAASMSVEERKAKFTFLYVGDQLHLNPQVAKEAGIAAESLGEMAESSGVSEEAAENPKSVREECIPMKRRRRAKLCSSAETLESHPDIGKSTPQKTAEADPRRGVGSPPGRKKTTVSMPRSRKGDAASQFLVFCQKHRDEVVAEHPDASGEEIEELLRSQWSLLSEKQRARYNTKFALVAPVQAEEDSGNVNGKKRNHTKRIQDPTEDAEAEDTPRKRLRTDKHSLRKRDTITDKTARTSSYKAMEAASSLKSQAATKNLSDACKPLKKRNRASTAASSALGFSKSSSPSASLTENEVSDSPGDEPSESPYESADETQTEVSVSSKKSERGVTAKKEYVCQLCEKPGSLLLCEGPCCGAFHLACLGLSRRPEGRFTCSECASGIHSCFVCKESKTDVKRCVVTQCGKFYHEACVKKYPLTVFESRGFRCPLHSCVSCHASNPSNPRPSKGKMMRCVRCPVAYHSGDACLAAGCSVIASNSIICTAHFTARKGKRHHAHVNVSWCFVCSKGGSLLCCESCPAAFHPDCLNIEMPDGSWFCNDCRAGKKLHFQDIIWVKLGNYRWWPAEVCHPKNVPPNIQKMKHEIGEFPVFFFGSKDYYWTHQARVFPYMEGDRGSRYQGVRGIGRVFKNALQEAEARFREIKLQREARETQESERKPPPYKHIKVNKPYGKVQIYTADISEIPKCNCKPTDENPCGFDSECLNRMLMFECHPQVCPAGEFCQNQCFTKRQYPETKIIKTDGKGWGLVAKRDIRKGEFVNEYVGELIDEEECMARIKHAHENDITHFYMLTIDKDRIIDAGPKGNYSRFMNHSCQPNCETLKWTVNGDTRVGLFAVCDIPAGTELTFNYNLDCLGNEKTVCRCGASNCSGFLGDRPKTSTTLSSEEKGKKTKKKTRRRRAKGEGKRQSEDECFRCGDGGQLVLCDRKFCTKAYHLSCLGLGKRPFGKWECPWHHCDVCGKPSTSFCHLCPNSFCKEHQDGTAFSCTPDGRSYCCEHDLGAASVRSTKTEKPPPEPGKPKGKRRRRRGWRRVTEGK
Type of assay: biochemical.

For a further assay, the target named is Cytochrome P450 2C19 (Homo sapiens, UniProt P33261). The assay is described as follows: Cytochrome panel assay with activity outcomes. Panel member name: p450-cyp2c19 Compounds with AC50 equal or less than 10 uM are considered active. Type of assay: functional. Conditions: read-out: AC50.
Cytochrome P450 2C19, sequence (P33261 whole entry): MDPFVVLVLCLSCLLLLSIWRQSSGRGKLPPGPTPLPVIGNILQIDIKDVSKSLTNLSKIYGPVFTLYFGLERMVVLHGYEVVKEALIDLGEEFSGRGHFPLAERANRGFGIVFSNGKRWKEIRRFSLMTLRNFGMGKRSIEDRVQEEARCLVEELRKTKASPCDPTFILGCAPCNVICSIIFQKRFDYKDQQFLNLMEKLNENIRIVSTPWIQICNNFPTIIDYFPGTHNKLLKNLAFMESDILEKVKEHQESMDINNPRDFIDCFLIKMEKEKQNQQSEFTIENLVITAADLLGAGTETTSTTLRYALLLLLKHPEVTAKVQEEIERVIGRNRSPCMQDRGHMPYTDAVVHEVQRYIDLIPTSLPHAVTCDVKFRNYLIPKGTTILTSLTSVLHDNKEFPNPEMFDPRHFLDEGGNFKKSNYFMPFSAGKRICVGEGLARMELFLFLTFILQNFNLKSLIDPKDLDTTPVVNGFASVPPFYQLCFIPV
A further assay deals with Cytochrome P450 3A4 (Homo sapiens, UniProt P08684).
Cytochrome P450 3A4, sequence (P08684 whole entry): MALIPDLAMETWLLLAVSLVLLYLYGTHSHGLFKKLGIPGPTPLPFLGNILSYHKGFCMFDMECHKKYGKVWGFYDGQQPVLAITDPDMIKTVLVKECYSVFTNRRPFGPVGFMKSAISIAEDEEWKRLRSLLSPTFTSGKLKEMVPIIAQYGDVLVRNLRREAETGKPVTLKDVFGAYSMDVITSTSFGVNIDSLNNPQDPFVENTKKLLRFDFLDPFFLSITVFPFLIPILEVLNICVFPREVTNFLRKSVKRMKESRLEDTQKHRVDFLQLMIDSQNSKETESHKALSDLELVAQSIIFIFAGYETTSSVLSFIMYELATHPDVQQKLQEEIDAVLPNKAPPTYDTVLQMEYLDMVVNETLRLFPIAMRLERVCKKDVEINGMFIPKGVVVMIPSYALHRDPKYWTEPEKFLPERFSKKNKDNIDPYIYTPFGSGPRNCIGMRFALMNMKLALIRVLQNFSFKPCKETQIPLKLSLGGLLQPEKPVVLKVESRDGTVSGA
For assay [2], the target named is T4, DNA repair and recombination protein RAD54-like (Homo sapiens, UniProt Q92698).
T4 sequence (Q92698 whole entry): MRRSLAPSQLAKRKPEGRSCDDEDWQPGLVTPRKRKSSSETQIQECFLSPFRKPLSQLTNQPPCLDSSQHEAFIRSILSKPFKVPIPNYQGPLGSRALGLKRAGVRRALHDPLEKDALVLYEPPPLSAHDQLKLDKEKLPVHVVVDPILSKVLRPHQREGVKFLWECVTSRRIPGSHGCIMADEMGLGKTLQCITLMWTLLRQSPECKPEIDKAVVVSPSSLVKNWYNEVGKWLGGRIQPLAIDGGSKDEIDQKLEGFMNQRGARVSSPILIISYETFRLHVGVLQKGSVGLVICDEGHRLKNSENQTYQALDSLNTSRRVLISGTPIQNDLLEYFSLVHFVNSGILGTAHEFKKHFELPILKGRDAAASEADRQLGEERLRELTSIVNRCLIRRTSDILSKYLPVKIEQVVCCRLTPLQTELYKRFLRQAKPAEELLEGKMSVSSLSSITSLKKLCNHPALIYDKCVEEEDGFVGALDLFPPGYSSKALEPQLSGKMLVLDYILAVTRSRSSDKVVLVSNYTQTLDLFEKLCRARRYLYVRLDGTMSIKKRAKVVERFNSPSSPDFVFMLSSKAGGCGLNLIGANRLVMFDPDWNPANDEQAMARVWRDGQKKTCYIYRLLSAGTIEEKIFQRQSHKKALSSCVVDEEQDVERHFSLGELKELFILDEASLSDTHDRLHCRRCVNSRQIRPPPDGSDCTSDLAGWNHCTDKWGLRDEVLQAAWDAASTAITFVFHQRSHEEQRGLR
The assay is described as follows: RAD54 Holliday junction migration blockers – biochemical, fluorescence, cherry-picked samples, dose series, confirmation (AID 651657). Type of assay: functional.

Another assay deals with T5, Aminopeptidase N (Plasmodium falciparum FcB1/Columbia, UniProt O96935).
T5 sequence (O96935 whole entry): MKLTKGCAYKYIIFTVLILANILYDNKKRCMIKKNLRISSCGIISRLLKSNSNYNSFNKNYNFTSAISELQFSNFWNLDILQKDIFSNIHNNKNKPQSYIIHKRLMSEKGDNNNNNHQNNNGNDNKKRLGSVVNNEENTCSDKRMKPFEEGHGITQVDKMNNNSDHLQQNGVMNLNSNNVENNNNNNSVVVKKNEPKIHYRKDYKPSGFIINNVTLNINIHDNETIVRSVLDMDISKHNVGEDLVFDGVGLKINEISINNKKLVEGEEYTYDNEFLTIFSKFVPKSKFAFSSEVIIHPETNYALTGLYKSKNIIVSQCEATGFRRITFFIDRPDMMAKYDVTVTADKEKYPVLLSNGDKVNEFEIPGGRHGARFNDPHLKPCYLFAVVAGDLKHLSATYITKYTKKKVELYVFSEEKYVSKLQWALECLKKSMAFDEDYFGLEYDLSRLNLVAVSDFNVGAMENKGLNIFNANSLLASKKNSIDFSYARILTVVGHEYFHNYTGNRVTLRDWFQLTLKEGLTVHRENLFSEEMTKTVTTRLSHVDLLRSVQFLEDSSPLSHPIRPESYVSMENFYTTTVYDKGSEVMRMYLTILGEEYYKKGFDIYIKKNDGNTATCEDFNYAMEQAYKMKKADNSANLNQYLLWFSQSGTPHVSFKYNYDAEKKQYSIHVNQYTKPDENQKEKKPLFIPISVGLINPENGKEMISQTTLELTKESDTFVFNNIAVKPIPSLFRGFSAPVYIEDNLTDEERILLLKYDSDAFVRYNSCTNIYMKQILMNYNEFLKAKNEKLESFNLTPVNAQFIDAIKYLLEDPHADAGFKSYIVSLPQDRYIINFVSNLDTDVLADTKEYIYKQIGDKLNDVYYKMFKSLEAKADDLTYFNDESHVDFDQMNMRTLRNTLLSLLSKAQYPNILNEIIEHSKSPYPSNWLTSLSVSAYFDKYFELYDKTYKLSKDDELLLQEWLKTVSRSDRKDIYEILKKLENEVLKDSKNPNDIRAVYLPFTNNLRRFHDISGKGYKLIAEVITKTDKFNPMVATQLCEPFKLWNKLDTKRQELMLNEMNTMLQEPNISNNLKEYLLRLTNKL
The assay is described as follows: malaria alanyl aminopeptidase activity blockers – biochemical, fluorogenic H-Leu-NHMec substrate, 1536-well (AID 1445). Set-up: species or system Plasmodium falciparum 3D7, 3D7.

Another assay has as its target T6, Cytochrome P450 1A2 (Homo sapiens, UniProt P05177).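 Note: PubChem cytochrome P450 panel assay, CYP1A2 panel member.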
T6 sequence (P05177 whole entry): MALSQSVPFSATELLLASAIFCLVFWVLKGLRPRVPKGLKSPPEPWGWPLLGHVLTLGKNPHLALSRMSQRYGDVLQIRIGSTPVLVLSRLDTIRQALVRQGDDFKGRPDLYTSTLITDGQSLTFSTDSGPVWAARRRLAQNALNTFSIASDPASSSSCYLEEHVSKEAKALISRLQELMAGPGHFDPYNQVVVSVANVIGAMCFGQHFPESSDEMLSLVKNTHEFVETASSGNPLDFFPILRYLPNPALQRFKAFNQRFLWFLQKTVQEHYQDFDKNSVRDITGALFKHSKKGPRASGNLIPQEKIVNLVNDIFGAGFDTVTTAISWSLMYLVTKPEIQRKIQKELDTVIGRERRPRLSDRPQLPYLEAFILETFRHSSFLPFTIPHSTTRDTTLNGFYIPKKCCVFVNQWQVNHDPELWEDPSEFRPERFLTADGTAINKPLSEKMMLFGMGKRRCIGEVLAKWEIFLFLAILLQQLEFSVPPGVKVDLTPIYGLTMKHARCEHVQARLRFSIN

The next assay deals with Cytochrome P450 2D6 (Homo sapiens, UniProt P10635).
Cytochrome P450 2D6, sequence (P10635 whole entry): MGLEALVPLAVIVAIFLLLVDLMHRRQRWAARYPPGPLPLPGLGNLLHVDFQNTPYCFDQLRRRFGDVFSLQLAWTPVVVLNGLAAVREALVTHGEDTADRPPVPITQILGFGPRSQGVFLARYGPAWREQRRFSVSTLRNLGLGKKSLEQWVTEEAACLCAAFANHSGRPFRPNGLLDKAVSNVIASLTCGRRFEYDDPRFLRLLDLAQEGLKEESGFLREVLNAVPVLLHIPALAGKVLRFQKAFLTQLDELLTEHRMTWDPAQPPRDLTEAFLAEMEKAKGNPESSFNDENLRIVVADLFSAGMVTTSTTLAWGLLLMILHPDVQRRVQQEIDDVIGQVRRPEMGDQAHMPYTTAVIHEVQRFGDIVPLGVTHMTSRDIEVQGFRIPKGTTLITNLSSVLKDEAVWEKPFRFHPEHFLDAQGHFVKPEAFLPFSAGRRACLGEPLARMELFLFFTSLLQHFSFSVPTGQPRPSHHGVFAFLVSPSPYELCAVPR

Turning to `CCSc1nnc(NC(=O)CSc2nnc(Cc3cccn3C)n2CCc2ccccc2)s1`, the Ki on fMet-Leu-Phe receptor was > 66.7 µM (inactive).

Consider `O=C(Nc1ccc2nc(-c3ccccc3)oc2c1)c1ccco1`, for which the IC50 at Protein skinhead-1 was > 100 µM (inactive).

As to `O=C(C1=C(O)C(=O)N(CC2CCCO2)C1c1cccnc1)c1ccco1` (stereo not given), the Ki on fMet-Leu-Phe receptor was 54.8 µM (inactive).

Consider `CNCCC1Sc2ccccc2Oc2ccccc21` (stereo not given), for which, in [1], the AC50 is > 20 µM (inactive).

Regarding `CCOC(=O)CCn1nc(-c2ccc(Cl)cc2)cc1N`, at fMet-Leu-Phe receptor, the Ki is > 66.7 µM (inactive).

As to `CCCN(CCC)CCCNC(=O)c1cc2cc3ccc(OC)cc3nc2o1`, the AC50 on Cytochrome P450 2C19 was 20 µM (inconclusive); on Cytochrome P450 3A4 it was 15.8 µM (inconclusive); in assay [2], 31.6 µM (active); on Cytochrome P450 1A2 it was 20 µM (inconclusive). Also, the IC50 on Aminopeptidase N is 45.9 µM (active).

With `CCOc1cc(C(=O)NCc2nnc(SCC(=O)OC)n2C)cc(OCC)c1OCC`, the Ki on fMet-Leu-Phe receptor is > 66.7 µM (inactive).

With `Clc1ccccc1-c1nc(-c2ccncc2)no1` [PIFEXOLE], the AC50 at Cytochrome P450 3A4 is 2 µM (inconclusive); on Cytochrome P450 2D6 it was 3.16 µM (inconclusive). For the same compound, the IC50 on Protein skinhead-1 was 11.2 µM (active) and 18.8 µM (active).

For the compound `CCNCCC(=O)N1c2ccccc2Sc2ccc(C(F)(F)F)cc21`, the AC50 in assay [1] is > 20 µM (inactive).

As to `Clc1ccc2oc(SCc3cccnc3)nc2c1`, the IC50 at Protein skinhead-1 is 33.5 µM (active).

On to `CCc1nn2c(=O)cc(CSc3nc4sc5c(c4c(=O)n3C)CCCC5)nc2s1`, for which the Ki on fMet-Leu-Phe receptor is > 66.7 µM (inactive).

Consider `O=C(COc1ccccc1)N/N=C/c1sc(=O)n(Cc2cccc(C(=O)O)c2)c1Cl`, for which the AC50 in assay [1] was > 20 µM (inactive).

On to `Cc1nn(C(=O)CCC(=O)NCc2cccc(F)c2)c2ccccc12`, for which, at Protein skinhead-1, the IC50 is > 100 µM (inactive).

As to `COC(=O)c1ccc(-c2ccc(Cl)cc2)nc1C`, on Protein skinhead-1, the IC50 was 82.5 µM (inactive).

A word on the Ki: it is a measure of affinity in units of concentration, obtained from inhibition or displacement. The IC50 is the concentration needed to halve the response being measured. In general, AC50 refers to the midpoint of the concentration-response curve, whichever way the signal moves.
